Experimental data as given in ChEMBL document CHEMBL4118173, “Discovery of benzimidazole derivatives as orally active renin inhibitors: Optimization of 3,5-disubstituted piperidine to improve pharmacokinetic profile” (Bioorg Med Chem, 2018).
Activity calls are given as the source filed them. The calls are words filed in the database; no cut-off is given here.

Key:
in vivo [1] = details: rat, iv
Description: Clearance in rat at 0.1 mg/kg, iv or 1 mg/kg, po administered as cassette dose by LC-MS/MS analysis

in vitro = details: PAMPA, pH 7.4
Description: Permeability of the compound at pH 7.4 buffer after 3 hrs by PAMPA

in vivo [2] = details: rat, iv, 0.1 mg/kg
Renin [3] = target: T1, Renin (Homo sapiens, UniProt P00797)
T1 sequence (P00797 whole entry): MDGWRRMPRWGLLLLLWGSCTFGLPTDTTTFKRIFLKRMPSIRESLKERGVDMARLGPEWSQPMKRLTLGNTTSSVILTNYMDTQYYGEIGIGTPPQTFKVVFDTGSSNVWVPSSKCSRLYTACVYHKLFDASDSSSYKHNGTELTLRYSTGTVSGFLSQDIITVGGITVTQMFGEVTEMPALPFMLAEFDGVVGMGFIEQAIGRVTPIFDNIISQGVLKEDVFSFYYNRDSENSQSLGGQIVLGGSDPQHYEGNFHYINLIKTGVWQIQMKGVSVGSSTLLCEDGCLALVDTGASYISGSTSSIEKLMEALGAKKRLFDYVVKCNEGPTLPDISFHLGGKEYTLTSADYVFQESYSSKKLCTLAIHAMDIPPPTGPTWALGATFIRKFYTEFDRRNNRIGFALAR
Description: Inhibition of recombinant human renin using angiotensinogen as substrate pretreated for 10 mins followed by substrate addition measured after 30 mins in presence of human serum albumin by ELISA

physchem = details: 1-octanol/aqueous buffer, pH 7.4
Description: 1-octanol/aqueous buffer partition coefficient, log D of the compound at pH 7.4 by UV-vis/HPLC method

in vivo [4] = details: rat, po, 1 mg/kg
Renin [5] = target: T1, Renin; remark: listed apart in the source
Description: Inhibition of renin in human plasma by radioimmunoassay

Renin [6] = target: T1, Renin; remark: listed apart in the source
Description: Inhibition of recombinant human renin using angiotensinogen as substrate pretreated for 10 mins followed by substrate addition measured after 30 mins in absence of human serum albumin by ELISA

in vivo [7] = details: rat, po, 1 mg/kg; remark: listed apart in the source
Cynomolgus monkey [8] = details: Macaca fascicularis; Plasma; 5 to 15 mg/kg
[9] = Clearance in cynomolgus monkey at 0.1 mg/kg, iv or 1 mg/kg, po administered as cassette dose by LC-MS/MS analysis; type: ADME, organism-based, Macaca fascicularis; details: in vivo
Cynomolgus monkey [10] = details: Macaca fascicularis; Plasma; 15 mg/kg
[11] = AUC in cynomolgus monkey at 1 mg/kg, po administered as cassette dose by LC-MS/MS analysis; type: ADME, organism-based, Macaca fascicularis; details: in vivo
[12] = Cmax in cynomolgus monkey at 0.1 mg/kg, iv or 1 mg/kg, po administered as cassette dose by LC-MS/MS analysis; type: ADME, organism-based, Macaca fascicularis; details: in vivo
[13] = Oral bioavailability in cynomolgus monkey at 1 mg/kg administered as cassette dose by LC-MS/MS analysis; type: ADME, organism-based, Macaca fascicularis; details: in vivo
[14] = AUC in cynomolgus monkey at 0.1 mg/kg, iv administered as cassette dose by LC-MS/MS analysis; type: ADME, organism-based, Macaca fascicularis; details: in vivo
[15] = Tmax in cynomolgus monkey at 0.1 mg/kg, iv or 1 mg/kg, po administered as cassette dose by LC-MS/MS analysis; type: ADME, organism-based, Macaca fascicularis; details: in vivo
Rattus norvegicus = species on record: Rattus norvegicus; details: in vivo, po, 1 mg/kg

| SMILES | clearance (in vivo [1]) | Papp at 3 h (in vitro) | AUC (in vivo [2]) | IC50 (Renin [3]) | logD (physchem) | AUC (in vivo [4]) | IC50 (Renin [5]) | IC50 (Renin [6]) | bioavailability (in vivo [7]) | inhibition (Cynomolgus monkey [8]) | clearance [9] | inhibition (Cynomolgus monkey [10]) | AUC [11] | Cmax [12] | bioavailability [13] | AUC [14] | Tmax [15] | AUC (Rattus norvegicus) |
| --- | --- | --- | --- | --- | --- | --- | --- | --- | --- | --- | --- | --- | --- | --- | --- | --- | --- | --- |
| COCCCCc1c(C(=O)N(CC(C)C)[C@@H]2CNC[C@H](C(=O)N3CCOCC3)C2)cnn1-c1ccccc1 | 80.4 mL/min/kg | 7.8 ×10⁻⁶ cm/s | 20.8 ng·h/mL | 1.2 nM | 1.78 | 0.7 ng·h/mL | 1.3 nM | 1.1 nM | 0.3% | – | – | – | – | – | – | – | – | – |
| COCCCCc1c(C(=O)N(CC(C)C)[C@@H]2CNC[C@H](C(=O)N3CCOCC3)C2)nc2n1CCCC2 | – | – | – | 2.7 nM | – | – | 3.3 nM | 2.2 nM | – | – | – | – | – | – | – | – | – | – |
| COCCCCn1c(C(=O)N(CC(C)C)[C@@H]2CNC[C@H](C(=O)N3CCOCC3)C2)nnc1-c1ccccc1 | 112 mL/min/kg | 11.6 ×10⁻⁶ cm/s | 15.3 ng·h/mL | 1.8 nM | 1.79 | – | 1.2 nM | 1.4 nM | < 1% | – | – | – | – | – | – | – | – | – |
| COCCCOc1nc(C(C)(C)C)ncc1C(=O)N(CC(C)C)[C@@H]1CNC[C@H](C(=O)N2CCOCC2)C1 | – | 27.2 ×10⁻⁶ cm/s | – | > 100 nM | 2.81 | – | – | > 100 nM | – | – | – | – | – | – | – | – | – | – |
| CC(C)CN(C(=O)c1nc2ccccc2n1C)[C@@H]1CNC[C@H](C(=O)N2CCOCC2)C1 | 38.9 mL/min/kg | 27.4 ×10⁻⁶ cm/s | 43.9 ng·h/mL | 0.66 nM | 1.71 | 74.2 ng·h/mL | 2.9 nM | 0.63 nM | 17% | – | – | – | – | – | – | – | – | – |
| CCCCCNc1nc(C(C)(C)C)ncc1C(=O)N(CC(C)C)[C@@H]1CNC[C@H](C(=O)N2CCOCC2)C1 | 62.4 mL/min/kg | 25.2 ×10⁻⁶ cm/s | 27.3 ng·h/mL | 0.64 nM | 4.45 | – | 5.4 nM | 0.2 nM | < 1% | – | – | – | – | – | – | – | – | – |
| COCCCCc1c(C(=O)N(CC(C)C)[C@@H]2CNC[C@H](C(=O)N3CCOCC3)C2)nc2ccccn12 | 39 mL/min/kg | 6.3 ×10⁻⁶ cm/s | 43.5 ng·h/mL | 2.1 nM | 1.54 | 9.5 ng·h/mL | 1.1 nM | 1.6 nM | 2.2% | – | – | – | – | – | – | – | – | – |
| COCCCOc1cc(C[C@@H](C[C@H](N)[C@@H](O)C[C@H](C(=O)NCC(C)(C)C(N)=O)C(C)C)C(C)C)ccc1OC | – | – | – | – | – | – | – | – | – | Active | 3.37 mL/min/kg | Active | 25.9 ng·h/mL | 3.5 ng/mL | 0.6% | 501 ng·h/mL | 3.33 h | – |
| COCCCCn1c(C(=O)N(CC(C)C)[C@@H]2CNC[C@H](C(=O)N3CCOCC3)C2)cnc1-c1ccccc1 | 96.7 mL/min/kg | 7.2 ×10⁻⁶ cm/s | 17.6 ng·h/mL | 3.3 nM | 2.03 | – | 2.8 nM | 4.4 nM | < 1% | – | – | – | – | – | – | – | – | – |
| COCCCCn1c(C(=O)N(CC(C)C)[C@@H]2CNC[C@H](C(=O)N3CCOCC3)C2)ccc1-c1ccccc1 | 49.5 mL/min/kg | 21.7 ×10⁻⁶ cm/s | 34.6 ng·h/mL | 1.4 nM | 3.08 | 18.5 ng·h/mL | 3.4 nM | 0.16 nM | 5.4% | – | – | – | – | – | – | – | – | – |
| COCCCCn1nc(C(C)(C)C)cc1C(=O)N(CC(C)C)[C@@H]1CNC[C@H](C(=O)N2CCOCC2)C1 | – | – | – | 3.6 nM | 2.73 | – | – | 2 nM | – | – | – | – | – | – | – | – | – | – |
| CCn1c(C(=O)N(CC(C)C)[C@@H]2CNC[C@H](C(=O)N3CCOCC3)C2)nc2ccccc21 | 38.5 mL/min/kg | 24.2 ×10⁻⁶ cm/s | 43.4 ng·h/mL | 0.89 nM | 1.79 | 58.9 ng·h/mL | 1.3 nM | 0.66 nM | 14% | – | – | – | – | – | – | – | – | – |
| COCCCCn1c(C(=O)N(CC(C)C)[C@H]2CCCNC2)nc2ccccc21 | 33 mL/min/kg | 32.4 ×10⁻⁶ cm/s | 52.1 ng·h/mL | 1.6 nM | 2 | 59.7 ng·h/mL | 9.1 nM | 0.9 nM | 12% | – | – | – | – | – | – | – | – | – |
| CC(C)CN(C(=O)c1nc2ccccc2[nH]1)[C@@H]1CNC[C@H](C(=O)N2CCOCC2)C1 | 34.2 mL/min/kg | 6 ×10⁻⁶ cm/s | 50.7 ng·h/mL | 0.59 nM | 1.74 | 41.7 ng·h/mL | 4 nM | 0.76 nM | 8.2% | – | – | – | – | – | – | – | – | – |
| COCCCCn1c(C(=O)N(CC(C)C)[C@@H]2CNC[C@H](CO)C2)nc2ccccc21 | 15.5 mL/min/kg | 8.2 ×10⁻⁶ cm/s | 108 ng·h/mL | 0.32 nM | 1.77 | 103 ng·h/mL | 1.5 nM | 0.28 nM | 9.6% | – | – | – | – | – | – | – | – | – |
| COCCCCc1c(C(=O)N(CC(C)C)[C@@H]2CNC[C@H](C(=O)N3CCOCC3)C2)ncn1-c1ccccc1 | 127 mL/min/kg | 7.8 ×10⁻⁶ cm/s | 13.3 ng·h/mL | 1.1 nM | 1.84 | – | 1.2 nM | 0.83 nM | < 1% | – | – | – | – | – | – | – | – | – |
| COCCCCn1c(C(=O)N(CC(C)C)[C@@H]2CNC[C@H](C(=O)N3CCOCC3)C2)cnc1C(C)(C)C | – | – | – | 35 nM | 2.12 | – | – | 48 nM | – | – | – | – | – | – | – | – | – | – |
| CCn1c(C(=O)N(CC(C)C)[C@@H]2CNC[C@H](CO)C2)nc2ccccc21 | – | 5.5 ×10⁻⁶ cm/s | – | 21 nM | 1.73 | – | > 10 nM | 16 nM | – | – | – | – | – | – | – | – | – | – |
| CCCCCCc1nc(C(C)(C)C)ncc1C(=O)N(CC(C)C)[C@@H]1CNC[C@H](C(=O)N2CCOCC2)C1 | – | 43.5 ×10⁻⁶ cm/s | 42 ng·h/mL | – | 4.77 | – | – | – | – | – | – | – | – | – | – | – | – | 20.9 ng·h/mL |
| COCCCCn1c(C(=O)N(CC(C)C)[C@@H]2CNC[C@H](C(C)(C)O)C2)nc2ccccc21 | – | 20.2 ×10⁻⁶ cm/s | – | 1.5 nM | 1.98 | – | 2.6 nM | 0.72 nM | – | – | – | – | – | – | – | – | – | – |
| COCCCCn1nc(-c2ccccc2)cc1C(=O)N(CC(C)C)[C@@H]1CNC[C@H](C(=O)N2CCOCC2)C1 | – | – | – | > 100 nM | 2.68 | – | – | > 100 nM | – | – | – | – | – | – | – | – | – | – |
| COCCCCc1c(C(=O)N(CC(C)C)[C@@H]2CNC[C@H](C(=O)N3CCOCC3)C2)nnn1-c1ccccc1 | 92.4 mL/min/kg | 36.9 ×10⁻⁶ cm/s | 18.4 ng·h/mL | 0.65 nM | 1.94 | 3.5 ng·h/mL | 0.4 nM | 1 nM | 1.9% | – | – | – | – | – | – | – | – | – |
